Assay results published in US20140148498A1, “METHODS AND COMPOSITIONS FOR THE TREATMENT OF MARFAN SYNDROME AND ASSOCIATED DISORDERS” (THE JOHNS HOPKINS UNIVERSITY, priority 2011, published 2014).
“Also recorded” adds a separate entry of the source.

Experiments:
Type in all cases: in vivo
Fbn1^C1039G/+ mice [1] = assay: Aortic root and ascending aortic growth by echocardiography (Examples 6-8)
Source text: (§1) All mice were cared for under strict compliance with the Animal Care and Use Committee of the Johns Hopkins University School of Medicine. The Smad4 haploinsufficient mice were a generous gift from Dr. Chuxia Deng (NIH/NIDDK, Bethesda). The Fbn1^C1039G/+ line was maintained on a C57BL/6 background, allowing for valid comparisons. In order to further accommodate the potential for temporal- or background-specific variation in genetic or pharmacological manipulation experiments, all comparisons were made between contemporary littermates. Mice were checked daily for death and all mice found dead were immediately necropsied to assess for evidence of aortic dissection. Mice were killed with an inhalation overdose of halothane (Sigma-Aldrich, St. Louis). Mice underwent immediate laparotomy, descending abdominal aortic transection, and PBS (pH 7.4) infusion through the left ventricle to flush out the blood. For Western blot analysis, the proximal ascending aorta (root to right brachiocephalic trunk) was removed, flash frozen in liquid nitrogen and stored at −80° C. Following PBS infusion, mice analyzed for aortic histology had latex injected under low pressure into the left ventricular apex until it was visible in the descending abdominal aorta. The mice were then fixed for 24 hours in 10% buffered formalin, after which the heart and aorta were removed and stored in 70% ethanol.
Mouse monoclonal TGFβNAb (1d11; R&D Systems, Minneapolis) was reconstituted in PBS and administered via intraperitoneal injection 3 times a week at a dose of 5 mg/kg. Treatment was initiated at 1 month of age and continued for 2 months. IgG (Zymed Laboratories Inc, San Francisco) was reconstituted in PBS, and administered at a dose of 10 mg/kg as a control. SP600125 (Sigma-Aldrich, St. Louis) was reconstituted in 10% DMSO dissolved in PBS, and administered twice daily by intraperitoneal injection, at a dose of 30 mg/kg. Treatment was initiated at 1 month of age and continued for 2 months. 10% DMSO dissolved in PBS was administered as a control. RDEA119 was reconstituted in 10% 2-hydroxypropyl-beta-cyclodextrin (Sigma-Aldrich, St. Louis) dissolved in PBS, and administered twice daily by oral gavage at a dose of 25 mg/kg. Treatment was initiated at 2 months of age and continued for 2 months. 10% 2-hydroxypropyl-beta-cyclodextrin dissolved in PBS was administered as a control. Fasudil was dissolved in drinking water, and administered at a dose of 1 mg/kg body weight per day. Treatment was initiated at 2 months of age and continued for 4 months. Drinking water was administered as a control.
Nair hair removal cream was used on all mice the day prior to echocardiography. All echocardiograms were performed on awake, unsedated mice using the Visualsonics Vevo 660 V1.3.6 imaging system and a 30 MHz transducer. The aorta was imaged using a parasternal long axis view. Three separate measurements of the maximal internal systolic dimension at the sinus of Valsalva and proximal ascending aorta were made, and a mean was calculated. All imaging and measurements were performed by a cardiologist who was blinded to genotype and treatment arm. In the TGFβNAb and SP600125 trials, mice were imaged at 1 month (baseline) and 3 months of age, after which they were killed. In the RDEA119 trial, mice were imaged at 2 months (baseline) and 4 months of age, after which they were killed. In the fasudil trial, mice were imaged at 2 months (baseline) and 6 months of age, after which they were killed. Smad4 haploinsufficient mice were imaged at 1 month, and then every 2 months thereafter, until death or sacrifice.

WT mice = assay: Aortic root growth by echocardiography, WT mice (Examples 6-8); settings: 1 mg/kg per day in drinking water, 4 months, FIG. 18
Source text: as §1
Mouse monoclonal TGFβNAb (1d11; R&D Systems, Minneapolis) was reconstituted in PBS and administered via intraperitoneal injection 3 times a week at a dose of 5 mg/kg. Treatment was initiated at 1 month of age and continued for 2 months. IgG (Zymed Laboratories Inc, San Francisco) was reconstituted in PBS, and administered at a dose of 10 mg/kg as a control. […]
Nair hair removal cream was used on all mice the day prior to echocardiography. […] Three separate measurements of the maximal internal systolic dimension at the sinus of Valsalva and proximal ascending aorta were made, and a mean was calculated. […]

Fbn1^C1039G/+ mice [2] = assay: Aortic root growth by echocardiography, 7 months of treatment (Examples 3-5)
Experimental: A head-to-head comparison of ACEi versus ARBs was performed. Fbn1^C1039G/+ mice and WT littermates were treated with hemodynamically equivalent doses (FIG. 8) of either the ACEi enalapril (10 to 15 mg/kg of body weight per day) or the ARB losartan (40 to 60 mg/kg per day) (R. D. Patten et al., Clin. Sci 104, 109 (2003)), beginning at 8 weeks of age, and were assessed with serial echocardiograms. […] It is noteworthy that losartan reduced aortic root growth in Fbn1^C1039G/+ mice, but had no effect in WT littermates (P=0.27). […] Whether AT2 signaling is needed to achieve losartan's full therapeutic benefit was assessed. AT2KO:Fbn1^C1039G/+ mice were treated with losartan from 8 weeks of age and followed by serial echocardiography until they were killed at 9 months of age (FIG. 2C).
All mice were cared for under strict compliance with the Animal Care and Use Committee of the Johns Hopkins University School of Medicine. The Fbn1^C1039G/+ and AT2KO lines were maintained n a pure C57BL/6 background (backcrossed for greater than 9 generations), allowing for valid comparisons. In order to further accommodate the potential for temporal- or background-specified variation, all comparisons were made between contemporary littermates when possible. The AT21C0 mice were obtained as a generous gift from Dr. Inagami (T. Ichiki et al., Nature 377, 748 (1995)). The Agtr2 gene resides on the X chromosome and therefore we used either male mice carrying the mutated allele (who are hemizygous) or homozygous females, both of which have been previously shown to be functionally null for the AT2 receptor (T. Ichiki et al., Nature 377, 748 (1995)). Mice were sacrificed with an inhalation overdose of halothane (Sigma-Aldrich, St. Louis). Mice underwent immediate laparotomy, descending abdominal aortic transection, and PBS (pH 7.4) was infused through the right and left ventricles to flush out the blood. Mice that were analyzed for Western Blot analysis had their proximal ascending aortas (root to right brachiocephalic trunk) immediately dissected out, flash frozen in liquid nitrogen and stored at −80d until further processing. Mice that were analyzed for aortic histology had latex injected under low pressure into the left ventricular apex until it was visible in the descending abdominal aorta. Mice that were analyzed for lung histology had their trachea intubated with a 20-gauge blunted needle, and 0.5% agar was infused under a low and constant pressure to gradually inflate the lungs. The trachea was then tied-off using vicryl and the needle was removed. Mice were fixed for 24 hours in 10% buffered formalin, after which the heart, aorta and lungs were removed and stored in 70% ethanol.
Mice were started on medication at 8 weeks of age and continued for 7 months. Losartan was dissolved in drinking water and filtered to reach a concentration of 0.6 g/L, giving an estimated daily dose of 40-60 mg/kg/day. Enalapril was dissolved in drinking water and filtered to reach a final concentration of 0.15 g/L, giving an estimated daily dose of 10-15 mg/kg/day. […] Spironolactone was dissolved in drinking water and filtered to give an estimated dose of 20 mg/kg/day, a dose previously shown to have in-vivo phenotypic benefit in cardiovascular disease states (S. Sakurabayashi-Kitade et al., Atherosclerosis 206, 54 (2009)). Placebo-treated animals received regular drinking water. Blood pressures were analyzed by taking 20 tail cuff blood pressures per day over 5 days in each mouse to habituate the mice to the tail cuff pressure system, and the blood pressures obtained on the last day were averaged. At least 4 mice for each treatment group were analyzed.
Nair hair removal cream was used on all mice the day prior to echocardiograms. All echocardiograms were performed on awake, unsedated mice using the Visualsonics Vevo 660 V1.3.6 imaging system and a 30 MHz transducer. Mice were imaged at baseline, 1 month after treatment and then every two months until the time of sacrifice. […]

Compound	Absolute final aortic root diameter (Fbn1^C1039G/+ mice [1]; 1 mg/kg per day in drinking water, 4 months, FIG. 18)	Aortic root growth over 4 months (Fbn1^C1039G/+ mice [1]; fasudil trial)	Absolute final aortic root diameter (WT mice)	Final absolute aortic root diameter (Fbn1^C1039G/+ mice [2]; 7 months of treatment, FIG. 15, mean +/- 2 SEM)	Aortic root growth over 7 months of treatment (Fbn1^C1039G/+ mice [2]; versus placebo, drug in drinking water from 8 weeks of age)
O=S(=O)(c1cccc2cnccc12)N1CCCNCC1 [fasudil]	2.40+/−0.16	lack of rescue of aortic root growth; also recorded: failed to attenuate aortic root growth	1.73+/−0.05		
CC(=O)S[C@@H]1CC2=CC(=O)CC[C@]2(C)[C@H]2CC[C@@]3(C)[C@@H](CC[C@@]34CCC(=O)O4)[C@H]12 [spironolactone]				2.19+/−0.19	no significant difference; also recorded: no significant inhibition of aortic root growth
